These results are taken from ChEMBL document CHEMBL5137119, “Total Syntheses and Antibacterial Evaluations of Neocyclomorusin and Related Flavones” (2022).

Each structure is given as a SMILES string. Converted amounts (≈) assume the structure as drawn. Bounds are passed on as bounds.

By MIC is commonly meant the least concentration at which growth counts as inhibited.

Holding throughout (assay type): functional
The subject of test [1] is Escherichia coli. Briefly: Antibacterial activity against Escherichia coli ATCC 25922 assessed as inhibition of bacterial growth incubated for 24 hrs by optical density based analysis.
Test [2] relates to Staphylococcus aureus. In words: Antibacterial activity against Staphylococcus aureus ATCC 25923 assessed as inhibition of bacterial growth incubated for 24 hrs by optical density based analysis.
Test [3] has as its system Staphylococcus epidermidis. Briefly: Antibacterial activity against Staphylococcus epidermidis ATCC 51625 assessed as inhibition of bacterial growth incubated for 24 hrs by optical density based analysis.
Test [4] has as its system Bacillus subtilis. Briefly: Antibacterial activity against Bacillus subtilis ATCC 11774 assessed as inhibition of bacterial growth incubated for 24 hrs by optical density based analysis.
Test [5] deals with Escherichia coli. Briefly: Antibacterial activity against Escherichia coli assessed as inhibition of bacterial growth incubated for 18 hrs by p-iodonitrotetrazolium chloride dye based colorimetric assay.
In test [6] the test system is Klebsiella aerogenes. In words: Antibacterial activity against Enterobacter aerogenes assessed as inhibition of bacterial growth incubated for 18 hrs by p-iodonitrotetrazolium chloride dye based colorimetric assay.
Test [7] has as its system Klebsiella pneumoniae. Briefly: Antibacterial activity against Klebsiella pneumoniae assessed as inhibition of bacterial growth incubated for 18 hrs by p-iodonitrotetrazolium chloride dye based colorimetric assay.
Test [8] has as its system Providencia stuartii. Briefly: Antibacterial activity against Providencia stuartii assessed as inhibition of bacterial growth incubated for 18 hrs by p-iodonitrotetrazolium chloride dye based colorimetric assay.
The test system of test [9] is Enterobacter cloacae. Briefly: Antibacterial activity against Enterobacter cloacae assessed as inhibition of bacterial growth incubated for 18 hrs by p-iodonitrotetrazolium chloride dye based colorimetric assay.
In test [10] the test system is Pseudomonas aeruginosa. In words: Antibacterial activity against Pseudomonas aeruginosa assessed as inhibition of bacterial growth incubated for 18 hrs by p-iodonitrotetrazolium chloride dye based colorimetric assay.
Test [11] relates to Staphylococcus aureus. In words: Antibacterial activity against Staphylococcus aureus assessed as inhibition of bacterial growth.

Turning to `CC1(C)S[C@@H]2[C@H](NC(=O)[C@H](N)c3ccccc3)C(=O)N2[C@H]1C(=O)O` [AMPICILLIN], the MIC is 64 µg/mL (≈ 183 µM) in test [1], 4 µg/mL (≈ 11.4 µM) in test [2], 128 µg/mL (≈ 366 µM) in [3] and above 128 µg/mL in [4].
As to `CC1(C)C=Cc2c(cc(O)c3c(=O)c4c(oc23)-c2ccc(O)cc2OC(C(C)(C)O)C4)O1` (stereo unspecified) [NEOCYCLOMORUSIN], the minimal inhibitory concentration (MIC) is above 128 µg/mL in [1]; 64 µg/mL (≈ 147 µM) in [2]; above 128 µg/mL in test [3]; 64 µg/mL (≈ 147 µM) in [4]; 4 µg/mL (≈ 9.16 µM) in [5]; 4 µg/mL (≈ 9.16 µM) in test [6]. In addition, the MIC in test [7], in test [8], in [9] and in [10] was 4 µg/mL (≈ 9.16 µM) in each case.
In the case of `COc1cc(O)c2c(=O)c3c(oc2c1)-c1ccc(O)cc1OC(C(C)(C)O)C3` (stereo unspecified), the MIC in test [1] is above 128 µg/mL; in test [2], 128 µg/mL (≈ 333 µM); in [3], above 128 µg/mL; in [4], above 128 µg/mL; in test [11], 128 µg/mL (≈ 333 µM).
Turning to `CC(C)=CCc1c(-c2ccc(O)cc2O)oc2c3c(cc(O)c2c1=O)OC(C)(C)C=C3` [MORUSIN], the MIC is above 128 µg/mL in test [1], 8 µg/mL (≈ 19 µM) in test [2], 8 µg/mL (≈ 19 µM) in [3] and 16 µg/mL (≈ 38.1 µM) in test [4].
Regarding `NC[C@H]1O[C@H](O[C@H]2[C@H](O)[C@@H](O[C@H]3O[C@H](CO)[C@@H](O)[C@H](N)[C@H]3O)[C@H](N)C[C@@H]2N)[C@H](O)[C@@H](O)[C@@H]1O` [KANAMYCIN], the MIC in test [1] worked out at 16 µg/mL (≈ 33 µM); in test [2] it was 4 µg/mL (≈ 8.26 µM); in [3], 1 µg/mL (≈ 2.06 µM); in [4] it was 2 µg/mL (≈ 4.13 µM).
On to `CC(C)=CCc1c(-c2ccc(O)cc2O)oc2cc3c(c(O)c2c1=O)C=CC(C)(C)O3` [CUDRAFLAVONE B], for which the MIC in [1] was above 128 µg/mL; in test [2] it was 4 µg/mL (≈ 9.51 µM); in test [3], 16 µg/mL (≈ 38.1 µM); in test [4] it was 16 µg/mL (≈ 38.1 µM).
